According to publication PMC11249646, “Small-Molecule Disruptors of the Interaction between Calcium- and Integrin-Binding Protein 1 and Integrin αIIbβ3 as Novel Antiplatelet Agents” (ACS Pharmacology & Translational Science, 2024):
pIC50: −log10 of the molar value. Like-named read-outs stand apart in the source and are kept apart here.

Tests used:
Format in all cases: binding
[1] = molecular target: T1, CIB1 and αIIb interaction (GST-CIB1 : F-αIIb peptide) (Homo sapiens, UniProt Q99828); assay: FP assay, 384-well format (screen); parameters: 384-well SCREEN Efficacy (%): concentration or dose not given beside the values; conditions: for pIC50: read-out: 384-well SCREEN IC50
T1 construct: made in house; host or cells: BL-21 plus RIL cells (E. coli)
T1 sequence (Q99828 1-191): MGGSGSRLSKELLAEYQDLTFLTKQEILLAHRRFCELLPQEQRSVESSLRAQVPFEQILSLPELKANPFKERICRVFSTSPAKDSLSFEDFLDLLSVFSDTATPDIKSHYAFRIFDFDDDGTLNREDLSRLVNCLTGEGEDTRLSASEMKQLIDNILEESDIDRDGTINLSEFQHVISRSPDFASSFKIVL

[2] = molecular target: T2, GST-CIB1 : F-scrambled peptide (Homo sapiens, UniProt Q99828); assay: FP scrambled-peptide counter screen, 384-well format; conditions: for pIC50: read-out: 384-well COUNTERSCREEN IC50; for 384-well COUNTERSCREEN Confirm?: *: Curve in opposite direction
T2 construct: made in house; host or cells: BL-21 plus RIL cells (E. coli)
T2 sequence (Q99828 1-191): T1 sequence (Q99828 1-191)

[3] = molecular target: T3, CIB1 and αIIb interaction (CIB1-GST : F-αIIb peptide) (Homo sapiens, UniProt Q99828); assay: FP assay, 1536-well qHTS format (primary and confirmatory screen)
T3 construct: made in house; host or cells: BL-21 plus RIL cells (E. coli)
T3 sequence (Q99828 1-191): T1 sequence (Q99828 1-191)

[4] = molecular target: T2, GST-CIB1 : F-scrambled peptide; assay: FP scrambled-peptide counter screen, 1536-well format; conditions: for pIC50: read-out: COUNTERSCREEN IC50
[5] = confirmatory screen, YES/NO call
[6] = confirmatory screen, qHTS curve class, negative sign = inhibitory curve
[7] = confirmatory screen, negative = inhibition
[8] = confirmatory screen, read-out: CONFIRMATORY SCREEN IC50
[9] = qHTS FP screen hits, Table S2, negative = inhibition
[10] = qHTS FP screen hits, Table S2, one class per curve where COUNT > 1, negative sign = inhibitory curve
[11] = qHTS FP screen hits, Table S2, read-out: IC50
[12] = scrambled-peptide counterscreen
[13] = scrambled-peptide counterscreen, YES/NO call
[14] = scrambled-peptide counterscreen, qHTS curve class
[15] = qHTS primary screen hits, Table S2, negative = inhibition
[16] = qHTS primary screen hits, Table S2, negative sign = inhibitory curve, several classes where COUNT > 1
[17] = qHTS primary screen hits, Table S2, read-out: IC50

| Compound | 384-well SCREEN Efficacy (%) ([1]; F-αIIb peptide) | pIC50 ([1]; F-αIIb peptide) | 384-well COUNTERSCREEN Efficacy (%) ([2]; F-scrambled peptide) | pIC50 ([2]; F-scrambled peptide) | CONFIRMATORY SCREEN Confirm? [3, 5] | CONFIRMATORY SCREEN Curve Class [3, 6] | CONFIRMATORY SCREEN Efficacy (%) [3, 7] [%] | pIC50 [3, 8] | Efficacy (%) [3, 9] [%] | pIC50 [3, 11] | COUNTERSCREEN Efficacy (%) [4, 12] [%] | COUNTERSCREEN Confirm? [4, 13] | COUNTERSCREEN Curve Class [4, 14] | 384-well COUNTERSCREEN Confirm? ([2]; F-scrambled peptide) | Efficacy (%) [3, 15] [%] | pIC50 [3, 17] | 384-well SCREEN Confirm? ([1]; F-αIIb peptide, YES/NO) | other results |
| --- | --- | --- | --- | --- | --- | --- | --- | --- | --- | --- | --- | --- | --- | --- | --- | --- | --- | --- |
| O=C(O)C(F)(F)F.O=S(=O)(Nc1nc2n(n1)C(c1ccccc1)C=C(c1ccc(Cl)cc1)N2)c1ccccc1 (stereo not drawn) [NCGC00100537-04] | 85 | 4.30 | 80 | 4.30 | YES | -2.2 | -81 | 4.40 | -125 | 4.65 | 10 | YES | 4 | – | – | – | YES | Curve Class [3, 10]: -1.1 |
| CC[P](CC)(CC)=[Au][S][C@@H]1O[C@H](COC(C)=O)[C@@H](OC(C)=O)[C@H](OC(C)=O)[C@H]1OC(C)=O [NCGC00160391-02] | – | – | – | – | – | – | – | – | – | – | – | – | – | – | – | – | – | 384-well SCREEN Confirm? [1]: YES; 384-well SCREEN Efficacy (%) [1]: 69%; pIC50 [1]: 5.20; 384-well COUNTERSCREEN Efficacy (%) [2]: 52%; pIC50 [2]: 5.05; CONFIRMATORY SCREEN Confirm? [3]: YES; CONFIRMATORY SCREEN Curve Class [3]: -1.2; CONFIRMATORY SCREEN Efficacy (%) [3]: -36%; pIC50 ([3]; read-out: CONFIRMATORY SCREEN IC50): 4.50; COUNTERSCREEN Confirm? [4]: YES; COUNTERSCREEN Curve Class [4]: 4; COUNTERSCREEN Efficacy (%) [4]: -14% |
| CCc1oc2ccccc2c1C(=O)c1cc(I)c(O)c(I)c1 [NCGC00160408-03] | 31 | < 3.92 | 173 | 5.00 | YES | -1.2 | -75 | 4.95 | -52 | 4.40 | 20 | YES | 1.4 | – | – | – | – | Curve Class [3, 10]: -2.2; pIC50 [4, 12]: 4.95 |
| CCCCCCCCOc1ccccc1C(=O)Nc1ccc(C(=O)OCC[N+](C)(CC)CC)cc1.[Br-] [NCGC00163507-02] | 69 | 4.90 | 39 | < 3.92 | YES | -3 | -60 | 4.40 | – | – | 0 | YES | 4 | YES | – | – | YES | – |
| COc1nn(CSP(=S)(OC)OC)c(=O)s1 [NCGC00163724-03] | 80 | 4.80 | 60 | < 3.92 | YES | -1.4 | -47 | 4.70 | – | – | 0 | YES | 4 | YES | -47 | 4.23 | YES | Curve Class [3, 16]: -1.2 |
| Br.CCCCCCCCCCCCCCCC[N+](C)(C)C.[Br-] [NCGC00164283-07] | 57 | 4.80 | 44 | 5.60 | YES | -2.1 | -114 | 4.15 | -75 | 4.10 | 0 | YES | 4 | YES | – | – | YES | Curve Class [3, 10]: -2.2 |
| COc1cc(C(=O)NS(=O)(=O)c2ccccc2C)ccc1Cc1cn(C)c2ccc(NC(=O)OC3CCCC3)cc12 [NCGC00164547-06] | 38 | 5.02 | 60 | 6.00 | YES | -1.2 | -58 | 4.85 | – | – | 37 | YES | – | YES* | -38 | 4.45 | YES | Curve Class [3, 16]: -2.4; pIC50 [4, 12]: 4.30 |
| CCOC(=O)N1CCN([N+]([O-])=NOc2ccc([N+](=O)[O-])cc2[N+](=O)[O-])CC1 [NCGC00165815-03] | 61 | 5.74 | 48 | 4.80 | YES | -1.2 | -62 | 5.20 | – | – | -56 | YES | -2.2 | YES | – | – | YES | pIC50 [4, 12]: 4.35 |
| C=CCNc1oc(-c2ccc(-c3ccccc3)cc2)nc1C#N.O=C(O)C(F)(F)F [NCGC00183413-01] | 74 | 5.15 | 58 | 5.15 | YES | -1.2 | -66 | 4.75 | – | – | -17 | YES | 4 | – | -28 | 5.00 | YES | Curve Class [3, 16]: -1.4 |

Now from value to compound, other results behind:

| 384-well SCREEN Efficacy (%) ([1]; F-αIIb peptide) | pIC50 ([1]; F-αIIb peptide) | 384-well COUNTERSCREEN Efficacy (%) ([2]; F-scrambled peptide) | pIC50 ([2]; F-scrambled peptide) | CONFIRMATORY SCREEN Confirm? [3, 5] | CONFIRMATORY SCREEN Curve Class [3, 6] | CONFIRMATORY SCREEN Efficacy (%) [3, 7] [%] | pIC50 [3, 8] | Efficacy (%) [3, 9] [%] | pIC50 [3, 11] | COUNTERSCREEN Efficacy (%) [4, 12] [%] | COUNTERSCREEN Confirm? [4, 13] | COUNTERSCREEN Curve Class [4, 14] | 384-well COUNTERSCREEN Confirm? ([2]; F-scrambled peptide) | Efficacy (%) [3, 15] [%] | pIC50 [3, 17] | Compound | 384-well SCREEN Confirm? ([1]; F-αIIb peptide, YES/NO) | other results |
| --- | --- | --- | --- | --- | --- | --- | --- | --- | --- | --- | --- | --- | --- | --- | --- | --- | --- | --- |
| 90 | 5.77 | -20 | < 3.92 | YES | -1.2 | -81 | 5.10 | -79 | 5.05 | -22 | YES | 4 | YES | – | – | Cn1sc(=O)n(Cc2ccccc2)c1=O [NCGC00165913-03] | YES | Curve Class [3, 10]: -1.2 |
| 22 | < 3.92 | 32 | < 3.92 | YES | -2.2 | -79 | 4.35 | – | – | -24 | YES | 4 | – | -91 | 4.30 | COc1cc(/C=C2/N=C(c3ccccc3)OC2=O)c(F)cc1OCc1ccccc1 [NCGC00168015-01] | – | Curve Class [3, 16]: -2.1 |
| 73 | 4.85 | 51 | 4.75 | YES | -1.2 | -69 | 4.65 | – | – | -14 | YES | 4 | Inconclusive | -73 | 4.30 | O=Cc1c(-c2ccccc2)no[n+]1[O-] [NCGC00168371-01] | YES | Confirm and Selective? ([1]; selective toward αIIb: negative curve class and/or IC50 ratio of >3-fold and/or >2-fold efficacy vs scrambled peptide): Inconclusive; Curve Class ([3]; qHTS primary screen hits, Table S2, negative sign = inhibitory curve): -2.2 |
| 23 | < 3.92 | 47 | 4.75 | YES | -3 | -53 | 4.30 | -51 | 4.33 | -17 | YES | 4 | – | – | – | CCC(=O)NC(c1cccs1)c1cc([N+](=O)[O-])c2cccnc2c1O (stereo not drawn) [NCGC00182956-10] | – | – |
| 44 | 4.75 | 68 | < 3.92 | YES | -1.1 | -93 | 5.05 | -43 | 5.09 | 0 | YES | 4 | YES | – | – | CCc1ccc(/C=C2/SC(=S)NC2=O)cc1 [NCGC00185994-01] | YES | – |
